Data from patent US9597407B2, “Targeted antimicrobial moieties” (C3 Jian, Inc., priority 2009, dated 2017).
Ends that are not written are not given here.

System: microorganisms
Experiment: Morphology, biofilm and growth disruption by peptides (Table 5)
Format: cell-based
Set-up: key: A: Peptide aggregates; B: Less hyphal formation; Clumps; Diffuse clumps and small polyps; F: Diffuse growth; H: Thin; I: Growth inhibition; Microcolony formation; Rippled; Small polyps; Thick; W: Halo formation on top, microlonies on bottom
Source text: In certain embodiments peptides that induce alterations in phenotype or other biological activities can also be used as antimicrobial effector moieties.

Row | Substance | Organism, effect (morphology, biofilm and growth disruption) (S. pneumoniae) | Organism, effect (S. epidermidis) | Organism, effect (M. luteus) | Organism, effect (MRSA) | Organism, effect (C. jeikeium) | other results
1 | DLLKSLLGQDGAKNDEIIEFIKIIMEK [PF-591] | S. pneumoniae (R) |  |  |  |  | Organism, effect (morphology, biofilm and growth disruption) (C. jejuni): C. jejuni (C); Organism, effect (morphology, biofilm and growth disruption) (E. faecalis): E. faecalis (A)
2 | EILNNNQVIKELTMKYKTQFESNLGGWTARARR [PF-580] | S. pneumoniae (C) |  |  |  |  | Organism, effect (morphology, biofilm and growth disruption) (M. luteus): M. luteus (C); Organism, effect (morphology, biofilm and growth disruption) (MRSA): MRSA (M); Organism, effect (morphology, biofilm and growth disruption) (S. epidermidis): S. epidermidis (M)
3 | FESKILNASKELDKEKKVNTALSFNSHQDFAKAYQNGKI [PF-606] | S. pneumoniae (H) |  |  |  |  | Organism, effect (morphology, biofilm and growth disruption) (C. albicans): C. albicans (B); Organism, effect (morphology, biofilm and growth disruption) (MRSA): MRSA (I); Organism, effect (morphology, biofilm and growth disruption) (S. epidermidis): S. epidermidis (I); Organism, effect (morphology, biofilm and growth disruption) (S. mutans): S. mutans (I)
4 | FQKPFTGEEVEDFQDDDEIPTII [PF-437] | S. pneumoniae (I) |  |  |  |  | 
5 | GIVLIGLKLIPLLANVLR [PF-322] |  | S. epidermidis (C) |  |  |  | Organism, effect (B. subtilis): B. subtilis (H)
6 | GSVIKKRRKRMAKKKHRKLLKKTRIQRRRAGK [PF-527] | S. pneumoniae (H) |  |  |  |  | Organism, effect (morphology, biofilm and growth disruption) (B. subtilis): B. subtilis (I); Organism, effect (morphology, biofilm and growth disruption) (C. albicans): C. albicans (B); Organism, effect (morphology, biofilm and growth disruption) (C. jeikeium): C. jeikeium (I); Organism, effect (morphology, biofilm and growth disruption) (C. jejuni): C. jejuni (M); Organism, effect (morphology, biofilm and growth disruption) (M. luteus): M. luteus (S); Organism, effect (morphology, biofilm and growth disruption) (MRSA): MRSA (I); Organism, effect (morphology, biofilm and growth disruption) (P. aeruginosa): P. aeruginosa (I); Organism, effect (morphology, biofilm and growth disruption) (S. epidermidis): S. epidermidis (M)
7 | KFQGEFTNIGQSYIVSASHMSTSLNTGK [PF-583] | S. pneumoniae (D) |  |  |  |  | Organism, effect (morphology, biofilm and growth disruption) (MRSA): MRSA (I); Organism, effect (morphology, biofilm and growth disruption) (S. epidermidis): S. epidermidis (I); Organism, effect (morphology, biofilm and growth disruption) (S. mutans): S. mutans (F)
8 | KFSDQIDKGQDALKDKLGDL [PF-525] | S. pneumoniae (H) |  |  |  |  | 
9 | KNKKQTDILEKVKEILDKKKKTKSVGQKLY [PF-538] | S. pneumoniae (H) |  |  |  |  | 
10 | KTPNDKIHKTIIIKHIIL [PF-533] | S. pneumoniae (C) |  |  |  |  | Organism, effect (morphology, biofilm and growth disruption) (E. coli): E. coli (R); Organism, effect (morphology, biofilm and growth disruption) (E. faecalis): E. faecalis (C); Organism, effect (morphology, biofilm and growth disruption) (MRSA): MRSA (H); Organism, effect (morphology, biofilm and growth disruption) (S. epidermidis): S. epidermidis (H)
11 | LGLTAGVAYAAQPTNQPTNQPTNQPTNQPTNQPTNQPRW-NH2 [PF-520] | S. pneumoniae (M) |  |  |  |  | 
12 | MGIIAGIIKVIKSLIEQFTGK [PF-007] |  | S. epidermidis (A) | M. luteus (A) | MRSA (R) |  | Organism, effect (E. coli): E. coli (A); Organism, effect (E. faecalis): E. faecalis (A)
13 | MIHLTKQNTMEALHFIKQFYDMFFILNFNV [PF-040] |  | S. epidermidis (D) | M. luteus (D) | MRSA (D) | C. jeikeium (D) | Organism, effect (B. subtilis): B. subtilis (D); Organism, effect (C. jejuni): C. jejuni (D); Organism, effect (E. coli): E. coli (C); Organism, effect (P. mirabilis): P. mirabilis (C); Organism, effect (S. mutans): S. mutans (F); Organism, effect (S. pneumoniae): S. pneumoniae (D)
14 | MRFGSLALVAYDSAIKHSWPRPSSVRRLRM [PF-672] | S. pneumoniae (I) |  |  |  |  | Organism, effect (morphology, biofilm and growth disruption) (B. subtilis): B. subtilis (I); Organism, effect (morphology, biofilm and growth disruption) (C. albicans): C. albicans (I); Organism, effect (morphology, biofilm and growth disruption) (C. jeikeium): C. jeikeium (R); Organism, effect (morphology, biofilm and growth disruption) (E. faecalis): E. faecalis (I); Organism, effect (morphology, biofilm and growth disruption) (MRSA): MRSA (I); Organism, effect (morphology, biofilm and growth disruption) (S. epidermidis): S. epidermidis (I)
15 | PF-001 (chain 1 MNNWIIVAQLSVTVINEIIDIMKEKQKGGK; chain 2 MNNWIIVAQLSVTVINEIIDIMKEKQKGGK; Peptide with targeting and/or antimicrobial activity) |  | S. epidermidis (C) | M. luteus (C) | MRSA (R) | C. jeikeium (D) | 
16 | PF-004 (chain 1 ARLSKAIIIAVIVVYHLDVRGLF; chain 2 ARLSKAIIIAVIVVYHLDVRGLF; Peptide with targeting and/or antimicrobial activity) |  | S. epidermidis (A) | M. luteus (A) | MRSA (R) | C. jeikeium (A) | 
17 | PF-019 (NDTNK; Peptide with targeting and/or antimicrobial activity) |  |  |  | MRSA (M) |  | 
18 | PF-032 (RIVVPAHQSNMASTPNLSITP; Peptide with targeting and/or antimicrobial activity) |  | S. epidermidis (S) |  |  | C. jeikeium (C) | 
19 | PF-059 (TITLKAGIERALHEEVPGVIEVEQVF; Peptide with targeting and/or antimicrobial activity) |  |  |  |  |  | Organism, effect (C. jejuni): C. jejuni (C)
20 | PF-067 (DLIVKVHICFVVKTASGYCYLNKREAQAAI; Peptide with targeting and/or antimicrobial activity) |  | S. epidermidis (D) | M. luteus (R) | MRSA (M) | C. jeikeium (D) | Organism, effect (B. subtilis): B. subtilis (C); Organism, effect (C. jejuni): C. jejuni (D); Organism, effect (P. aeruginosa): P. aeruginosa (A); Organism, effect (S. pneumoniae): S. pneumoniae (D)
21 | PF-076 (LYQYELLSKEEYLKCTLIINQRRNEQK; Peptide with targeting and/or antimicrobial activity) |  | S. epidermidis (S) | M. luteus (A) | MRSA (R) | C. jeikeium (A) | 
22 | PF-125 (YVVGALVILAVAGLIYSMLRKA; Peptide with targeting and/or antimicrobial activity) |  | S. epidermidis (D) | M. luteus (C) |  |  | 
23 | PF-139 (ALSKPAIQARTLCRRQDPP; Peptide with targeting and/or antimicrobial activity) |  | S. epidermidis (M) | M. luteus (C) |  | C. jeikeium (R) | 
24 | PF-140 (FHRRVIRASEWALTTRSFSTPLRSAAR; Peptide with targeting and/or antimicrobial activity) |  | S. epidermidis (D) | M. luteus (R) | MRSA (M) | C. jeikeium (D) | Organism, effect (C. albicans): C. albicans (B); Organism, effect (C. jejuni): C. jejuni (D); Organism, effect (P. aeruginosa): P. aeruginosa (A); Organism, effect (S. pneumoniae): S. pneumoniae (D)
25 | PF-145 (GIVLTGRAGLVSGACSMALGVGLG; Peptide with targeting and/or antimicrobial activity) |  | S. epidermidis (D) | M. luteus (A) | MRSA (M) | C. jeikeium (R) | Organism, effect (B. subtilis): B. subtilis (C); Organism, effect (C. jejuni): C. jejuni (R); Organism, effect (S. pneumoniae): S. pneumoniae (R)
26 | PF-157 (HTAVVWLAGVSGCVALSHCEPA; Peptide with targeting and/or antimicrobial activity) |  | S. epidermidis (M) |  |  |  | 
27 | PF-178 (EVYSSPTNNVAITVQNN; Peptide with targeting and/or antimicrobial activity) |  | S. epidermidis (D) |  | MRSA (M) |  | Organism, effect (E. coli): E. coli (C); Organism, effect (S. pneumoniae): S. pneumoniae (D)
28 | PF-190 (HFILRKPLLFMIHSLKTGPLDRF; Peptide with targeting and/or antimicrobial activity) |  | S. epidermidis (C) |  |  | C. jeikeium (R) | 
29 | PF-196 (TTARYIRRQCHTSITPLSQG; Peptide with targeting and/or antimicrobial activity) |  | S. epidermidis (C) |  |  | C. jeikeium (R) | 
30 | PF-199 (FPAFSFGAIAGSVSVAR; Peptide with targeting and/or antimicrobial activity) |  | S. epidermidis (C) | M. luteus (A) |  | C. jeikeium (R) | 
